The values below come from ChEMBL document CHEMBL1139867, “Discovery of the HCV NS3/4A protease inhibitor (1R,5S)-N-[3-amino-1-(cyclobutylmethyl)-2,3-dioxopropyl]-3- [2(S)-[[[(1,1-dimethylethyl)amino]carbonyl]amino]-3,3-dimethyl-1-oxobutyl]- 6,6-dimethyl-3-azabicyclo[3.1.0]hexan-2(S)-carboxamide (Sch 503034) II. Key steps in structure-based optimization” (J Med Chem, 2007).

Structures are written as SMILES.

The assay concerns the target Hepatitis C virus serine protease, NS3/NS4A (Hepatitis C virus, UniProt A3EZI9+D2K2A8). Description: Inhibition of HCV genotype H 1a NS3/4A protease. The class given is protein-complex assay.

Hepatitis C virus serine protease, NS3/NS4A, sequence (D2K2A8 whole entry): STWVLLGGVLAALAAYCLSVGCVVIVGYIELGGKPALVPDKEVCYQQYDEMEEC
Hepatitis C virus serine protease, NS3/NS4A, sequence (A3EZI9 whole entry): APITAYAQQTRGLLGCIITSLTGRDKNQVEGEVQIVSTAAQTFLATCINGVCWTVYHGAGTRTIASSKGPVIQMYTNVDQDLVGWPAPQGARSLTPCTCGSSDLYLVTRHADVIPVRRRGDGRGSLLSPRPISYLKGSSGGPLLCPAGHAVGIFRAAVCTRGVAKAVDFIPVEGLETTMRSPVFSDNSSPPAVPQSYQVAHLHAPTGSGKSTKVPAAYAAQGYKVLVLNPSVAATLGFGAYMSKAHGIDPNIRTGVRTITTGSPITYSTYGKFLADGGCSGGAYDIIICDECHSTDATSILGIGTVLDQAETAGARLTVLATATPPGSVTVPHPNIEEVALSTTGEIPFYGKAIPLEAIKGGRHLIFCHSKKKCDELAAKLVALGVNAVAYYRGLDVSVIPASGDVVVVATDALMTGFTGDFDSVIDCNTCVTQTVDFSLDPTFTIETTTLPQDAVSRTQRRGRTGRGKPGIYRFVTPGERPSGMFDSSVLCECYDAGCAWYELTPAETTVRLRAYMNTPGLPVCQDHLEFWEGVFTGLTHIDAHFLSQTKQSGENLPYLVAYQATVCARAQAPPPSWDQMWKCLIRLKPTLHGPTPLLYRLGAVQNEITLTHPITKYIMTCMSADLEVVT

`CC(C)(C)NC(=O)NC(C(=O)N1C[C@H]2[C@@H](C1C(=O)N[C@@H](CC1CCC1)C(=O)C(N)=O)C2(F)F)C(C)(C)C` (stereo partly drawn) yielded a Ki of 140 nM.
`CC(C)(C)OC(=O)NC(C(=O)N1C[C@H]2[C@@H](C1C(=O)N[C@@H](CC1CCCC1)C(=O)C(N)=O)C2(C)C)C1CCCCC1` (stereo partly drawn): affinity was put at a Ki of 150 nM.
To `CC(C)C[C@H](NC(=O)C(NC(=O)OC(C)(C)C)C(C)(C)C)C(=O)N[C@@H](CC1CCC1)C(=O)C(N)=O` (stereo partly drawn) belongs 15000 nM; to `CC(C)[C@H](NC(=O)NC(C)(C)C)C(=O)N1C[C@H]2[C@@H](C1C(=O)N[C@@H](CC1CC1)C(=O)C(N)=O)C2(C)C` (stereo partly drawn), 100 nM; to `CCCC[C@H](NC(=O)C1[C@@H]2[C@H](CN1C(=O)C(NC(=O)OC(C)(C)C)C(C)(C)C)C2(C)C)C(=O)C(N)=O` (stereo partly drawn), 360 nM.
To `CCC[C@H](NC(=O)C1[C@@H]2[C@H](CN1C(=O)C(NC(=O)OC(C)(C)C)C(C)(C)C)C2(C)C)C(=O)C(N)=O` (stereo partly drawn) belongs 220 nM; to `CC(C)(C)NC(=O)NC(C(=O)N1C[C@H]2[C@@H](C1C(=O)N[C@@H](CC1CC1(F)F)C(=O)C(N)=O)C2(C)C)C(C)(C)C` (stereo partly drawn), 50 nM; to `COC(=O)NC(C(=O)N1C[C@H]2[C@@H](C1C(=O)N[C@@H](CC1CC1)C(=O)C(N)=O)C2(C)C)C1CCCCC1` (stereo partly drawn), 800 nM.
In the case of `CC(C)(C)NC(=O)NC(C(=O)N1C[C@@H]2OC(C)(C)C[C@@H]2C1C(=O)N[C@@H](CC1CCC1)C(=O)C(N)=O)C(C)(C)C` (stereo partly drawn) it was 500 nM; in that of `CC(C)C[C@H](NC(=O)C1[C@@H]2[C@H](CN1C(=O)C(NC(=O)OC(C)(C)C)C1CCCCC1)C2(C)C)C(=O)C(N)=O` (stereo partly drawn), 400 nM; in that of `CC(C)(C)OC(=O)NC(C(=O)N1C[C@H]2[C@@H](C1C(=O)N[C@@H](CC1CC1)C(=O)C(N)=O)C2(C)C)C1CCCCC1` (stereo partly drawn), 25 nM.
The compound `CCOC(=O)NC(C(=O)N1C[C@H]2[C@@H](C1C(=O)N[C@@H](CC1CC1)C(=O)C(N)=O)C2(C)C)C1CCCCC1` (stereo partly drawn) came in with a Ki of 230 nM.
In the case of `CC(C)(C)NC(=O)NC(C(=O)N1C[C@@H]2OC(C)(C)[C@@H]2C1C(=O)N[C@@H](CC1CC1)C(=O)C(N)=O)C(C)(C)C` (stereo partly drawn) it was 960 nM; in that of `CCC[C@H](NC(=O)C1[C@@H]2[C@H](CN1C(=O)C(NC(=O)NC(C)(C)C)C1CCCCC1)C2(C)C)C(=O)C(N)=O` (stereo partly drawn), 54 nM.
As for `CC(C)(C)C[C@H](NC(=O)C1[C@@H]2[C@H](CN1C(=O)C(NC(=O)OC(C)(C)C)C(C)(C)C)C2(C)C)C(=O)C(N)=O` (stereo partly drawn), the Ki is over 3300 nM.
To `CC(C)(C)OC(=O)NC(C(=O)N1C[C@H]2[C@@H](C1C(=O)NC(C(=O)C(N)=O)C(C)(C)C)C2(C)C)C(C)(C)C` (stereo partly drawn) belongs over 69000 nM; to `CCC(NC(=O)C1[C@@H]2[C@H](CN1C(=O)C(NC(=O)OC(C)(C)C)C1CCCCC1)C2(C)C)C(=O)C(N)=O` (stereo partly drawn), 740 nM.
`CCC[C@H](NC(=O)C1[C@@H]2[C@H](CN1C(=O)C(NC(=O)OC(C)(C)C)C1CCCCC1)C2(C)C)C(=O)C(N)=O` (stereo partly drawn) registered a Ki of 100 nM.
In the case of `CC(C)C[C@H](NC(=O)C1[C@@H]2[C@H](CN1C(=O)C(NC(=O)OC(C)(C)C)C(C)(C)C)C2(C)C)C(=O)C(N)=O` (stereo partly drawn) it was 480 nM; in that of `CC(C)(C)NC(=O)NC(C(=O)N1C[C@H]2[C@@H](C1C(=O)NC(C(=O)C(N)=O)C1CC1)C2(C)C)C(C)(C)C` (stereo partly drawn), 1600 nM.
`CC(C)(C)NC(=O)NC(C(=O)N1C[C@H]2[C@@H](C1C(=O)NC(C(=O)C(N)=O)C1CCC1)C2(C)C)C(C)(C)C` (stereo partly drawn) showed a Ki of 100 nM.
To `CC(C)(C)NC(=O)NC(C(=O)N1CCC[C@H]1C(=O)N[C@@H](CC1CCC1)C(=O)C(N)=O)C(C)(C)C` (stereo partly drawn) belongs 5000 nM; to `CC(C)(C)NC(=O)NC(C(=O)N1C[C@H]2[C@@H](C1C(=O)N[C@@H](CC1CCC1)C(=O)C(N)=O)C2(C)C)C(C)(C)C` (stereo partly drawn), 14 nM.
To `CC(C)(C)NC(=O)NC(C(=O)N1C[C@H]2[C@@H](C1C(=O)NC(C(=O)C(N)=O)C1CCCC1)C2(C)C)C(C)(C)C` (stereo partly drawn) belongs 1800 nM.
In the case of `CC(C)(C)OC(=O)NC(C(=O)N1C[C@H]2[C@@H](C1C(=O)N[C@@H](CC1CCCCC1)C(=O)C(N)=O)C2(C)C)C1CCCCC1` (stereo partly drawn) it was over 12000 nM; in that of `CC(=O)N[C@H](C(=O)NC(C(=O)N1C[C@H]2[C@@H](C1C(=O)N[C@@H](CC1CC1)C(=O)C(N)=O)C2(C)C)C1CCCCC1)C(C)C` (stereo partly drawn), 68 nM; in that of `CC(=O)N[C@H](C(=O)NC(C(=O)N1C[C@H]2[C@@H](C1C(=O)N[C@@H](CC1CCC1)C(=O)C(N)=O)C2(C)C)C(C)(C)C)C(C)C` (stereo partly drawn), 38 nM.
The compound `CC(C)(C)NC(=O)NC(C(=O)N1C[C@H]2[C@@H](C1C(=O)N[C@@H](CC1CCC1)C(=O)C(N)=O)C2(Cl)Cl)C(C)(C)C` (stereo partly drawn) displayed a Ki of 19 nM.
In the case of `CC(C)(C)NC(=O)NC(C(=O)N1C[C@H]2[C@@H](C1C(=O)N[C@@H](CC1CC(F)(F)C1)C(=O)C(N)=O)C2(C)C)C(C)(C)C` (stereo partly drawn) it was 115 nM; in that of `CC(C)(C)NC(=O)NC(C(=O)N1C[C@H]2[C@@H](C1C(=O)N[C@@H](CC1CC1)C(=O)C(N)=O)C2(C)C)C(C)(C)C` (stereo partly drawn), 13 nM; in that of `CC(C)OC(=O)NC(C(=O)N1C[C@H]2[C@@H](C1C(=O)N[C@@H](CC1CC1)C(=O)C(N)=O)C2(C)C)C1CCCCC1` (stereo partly drawn), 60 nM.
The compound `CC(C)(C)NC(=O)NC(C(=O)N1C[C@H]2[C@@H](C1C(=O)N[C@@H](CC1CC1)C(=O)C(N)=O)C2(C)C)C1CCCCC1` (stereo partly drawn) came in with a Ki of 50 nM.
To `CC(C)(C)OC(=O)NC(C(=O)N1C[C@H]2[C@@H](C1C(=O)N[C@@H](CC1CCC1)C(=O)C(N)=O)C2(C)C)C1CCCCC1` (stereo partly drawn) belongs 25 nM.

The term Ki denotes the equilibrium dissociation constant of an inhibitor or competing ligand from its target.
